Source: US20100121105A1, “Composition and Method of synthesizing a biomolecule and its therapeutics applications” (priority 2009, published 2010)
Like-named read-outs stand apart in the source and are kept apart here.

Experiments:
[1] = test system: volunteers; assay: Oral administration of ex-vivo synthesized J-Factor to 11 volunteers, physical changes observed; conditions: 0.5 mg per 10 days (=1.5 mg/month), observed in each volunteer
Procedure: (§1) In one of the embodiment of the present invention L-arginine was chemically converted into J-Factor ex-vivo. Thus converted/synthetic produced ex-vivo J-Factor was orally administrated to a small group of 11 volunteers. Each volunteers were given 0.5 mg per 10 days (=1.5 mg/month) and photographs were taken in each case at the beginning and end of the trial to record the changes in their faces and heads.
These changes indicate that ex-vivo synthesized J-Factor functioned like GH and autocrine-paracrine IGF-1 and also stimulated IGF-1 production.

[2] = test system: volunteers; assay: Comparison of synthetic J-Factor and biosynthetic GH: complications, diabetogenicity, antigenicity; assay type: in vivo
Procedure: as §1
In fact all of the above mentioned changes help in preventing or limiting the aging signs. The advantage of using ex-vivo synthesized J-Factor of the present invention when compared to biosynthetic GH is shown in the comparative table below: […]

[3] = test system: volunteers; conditions: biosynthetic GH, intra muscular administration, 3 time a week; stated as common knowledge; cited from earlier work
[4] = comparative table, oral administration 3 times a month, no test described

Molecule	Eye's central vision [1]	Fatty tissue e.g. in abdomen [1]	Hair growth [1]	Muscular hypertrophy [1]	Tone and color of facial skin [1]	Complications (Joint swelling, Carpal tunnel syndrome, Joint pain) ([2]; 11 volunteers, oral administration, 3 times a month)	Antigenicity [2, 4]	Diabetogenicity [2, 4]	Antigenicity [3]	Complications [3]	Diabetogenicity [3]
NC(N)=NCCC[C@H](N)C(=O)O [J-Factor, L-2-amino-5-diaminomethyleneamino-pentanoic acid]	Improvement in eye's central vision	A decrease in fatty tissue	Hair growth	Muscular hypertrophy	Improved tone and color of facial skin	showed no complications such as Joint	Non-antigenic	Non-diabetogenic			
Biosynthetic GH: biosynthetic Growth Hormone, comparator in the table									Antigenic	Joint swelling Carpal tunnel	Diabetogenic
